We go through 25 compounds from patent US20230174484A1, “ANTAGONISTS OF GPR39 PROTEIN” (Oregon Health & Science University, priority 2020, published 2023).

pKi: −log10 of the molar value.

The target of the test is T1, human GPR39 receptor (Homo sapiens, UniProt O43194).
T1 construct: PC3 Cells, Expressing the Endogenous Human GPR39 Receptor; endogenous in cells; host or cells: PC3 (human prostate adenocarcinoma) cells
T1 sequence (O43194 1-453): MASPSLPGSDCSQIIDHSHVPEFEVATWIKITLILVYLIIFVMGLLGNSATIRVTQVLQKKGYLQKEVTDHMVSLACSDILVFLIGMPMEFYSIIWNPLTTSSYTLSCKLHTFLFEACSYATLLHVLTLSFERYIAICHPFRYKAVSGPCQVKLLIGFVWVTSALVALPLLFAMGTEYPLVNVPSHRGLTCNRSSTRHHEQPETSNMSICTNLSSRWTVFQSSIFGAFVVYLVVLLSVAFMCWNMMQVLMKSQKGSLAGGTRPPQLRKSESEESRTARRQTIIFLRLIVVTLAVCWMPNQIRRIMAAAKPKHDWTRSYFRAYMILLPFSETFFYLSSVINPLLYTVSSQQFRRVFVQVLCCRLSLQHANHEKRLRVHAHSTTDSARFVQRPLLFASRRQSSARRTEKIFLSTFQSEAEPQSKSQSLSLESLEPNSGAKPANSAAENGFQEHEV
As to the kind of experiment: Measurement of intracellular calcium response in PC3 cells (FLIPR), antagonism of the C3 agonist response. The class given is cell-based. Particulars: functional pKi (modified Cheng-Prusoff), inhibition of the C3 (TC-G 1008) response at EC90, 30 μM ZnCl2, read-out: fpKi activity. The method, then:
Human prostate adenocarcinoma (PC3) cells endogenously expressing human GPR39 receptor were seeded into black walls clear-base 384-well plates at a density of 7,500 cells per well in DM EM (Low Glucose) supplemented with 10% heat-inactivated foetal bovine serum and 1% of Pen/Strep and grown overnight at 37° C., 5% CO2. After washing with assay buffer (20 mM HEPES, 137 mM NaCI, 5.4 mM KCI, 10 mM glucose, 0.8 mM MgSO4, 1.3 mM CaCl2, 0.3 mM Na2HPO4, 0.4 mM KH2PO4 4.2 mM NaHCO3, pH 7.4), cells were incubated with Calcium-6 probe (Molecular Devices) at 37° C. for 2h and then equilibrated at RT for 30 minutes on metal block. The fluorescence was measured in real time by Fluorometric Imaging Plate Reader (FLIPR TETRA, Molecular Devices) (excitation wavelength at 470-495 nm, emission wavelength at 515-575 nm).
Compounds of invention were serially diluted in neat DMSO at 1000 fold concentrations and plated into 384-well plates and then 200-fold diluted in assay buffer containing 150 uM ZnCl2 (30 μM final concentration) and […].
Fluorescence was monitored throughout the run assay. The peak of Ca2+stimulation (baseline subtracted) was expressed as percentage of the maximal inhibition of the EC90 C3 response and was plotted versus the concentration of test compound. Curve fitting and IC50 estimations are carried out using a four-parameter logistic model using XLfit Software.
The potency of compounds was reported as functional pKi (—Log10Ki) obtained using the modified Cheng-Prusoff relationship (Cheng, Y., Prusoff, W. H. 1973.)
fKi =IC50/(1+[L]/EC50) where IC50 is the concentration of antagonist required for 50% inhibition of the maximum response, [L] is the concentration of the agonist used (EC90) and EC50 is the concentration of agonist need to induced 50% of the maximum response (obtained in each experimental plate).
An fpKi less than 5.2 is reported as “+/±”. An fpKi ranging from 5.2 to 5.9 is reported as “+”. An fpKi from 6.0 to 6.5 is reported as “++”. An fpKi from 6.6 to 7.2 is reported as “+++”. An fpKi equal to or greater than 7.3 is reported as “++++”.
Consider `CN1CCN(C(=O)c2ccc(NC(=O)C3CC3)nc2N2CCC(F)(F)C2)C(c2ccccc2)C1` (racemic) [Example 148c, N-[6-(3,3-difluoropyrrolidin-1-yl)-5-(4-methyl-2-phenylpiperazine-1-carbonyl)pyridin-2-yl]cyclopropanecarboxamide], for which the pKi was 6.60 to 7.20.
On to `O=C(Nc1ccc(C(=O)N2CC[S+]([O-])CC2c2ccccc2)c(N2CCCC2)c1)C1CC1` (racemic) [Example 169, N-[4-(1-oxo-3-phenyl-1,4-thiazinane-4-carbonyl)-3-pyrrolidin-1-ylphenyl]cyclopropanecarboxamide], for which the pKi was 5.20 to 5.90.
As for `CN1CCN(C(=O)c2ccc(NC(=O)C3CC3)cc2N2CCC3(CCC3)C2)C(c2cccs2)C1` (racemic) [Example 85, N-[3-(6-azaspiro[3.4]octan-6-yl)-4-(4-methyl-2-thiophen-2-ylpiperazine-1-carbonyl)phenyl]Cyclopropanecarboxamide], the figure is no less than 7.30; as for `O=C(Nc1ccc(C(=O)N2CCN(Cc3cccnc3)CC2)c(N2CCCCCC2)c1)C1CC1` [Example 32, N-(3-(azepan-1-yl)-4-(4-(pyridin-3-ylmethyl)piperazine-1-carbonyl)phenyl)cyclopropanecarboxamide], 6.00 to 6.50.
The value for `CN1CCN(C(=O)c2ccc(NC(=O)C3CC3)cc2N2CCCCCC2)C(c2ccsc2)C1` (single isomer, unassigned) [Example 70a, N-(3-(azepan-1-yl)-4-(4-methyl-2-(thiophen-3-yl)piperazine-1-carbonyl)phenyl)cyclopropane carboxamide] was 5.20 to 5.90; that for `CS(=O)(=O)N1CCN(C(=O)c2ccc(NC(=O)C3CC3)cc2N2CCCC2)C(c2ccccc2)C1` (stereo not shown) [Example 215, N-[4-(4-methylsulfonyl-2-phenylpiperazine-1-carbonyl)-3-pyrrolidin-1-ylphenyl]cyclopropanecarboxamide] was 6.60 to 7.20.
As for `CN1CCN(C(=O)c2ccc(NC(=O)C3CC3)cc2N2CCCCCC2)C(c2cccs2)C1` (racemic) [Example 69c, N-(3-(azepan-1-yl)-4-(4-methyl-2-(thiophen-2-yl)piperazine-1-carbonyl)phenyl) cyclopropane carboxamide], the figure is no less than 7.30; as for `CN1CCN(C(=O)c2ccc(NC(=O)C3CC3)nc2N2CCC(F)(F)CC2)C(c2ccccc2)C1` (racemic) [Example 146, N-[6-(4,4-difluoropiperidin-1-yl)-5-(4-methyl-2-phenylpiperazine-1-carbonyl)pyridin-2-yl]cyclopropanecarboxamide], 6.60 to 7.20; as for `CN1CCN(C(=O)c2ccc(NC(=O)C3CC3)cc2N2CCCC2)C(c2cccc(F)c2)C1` (racemic) [Example 88c, N-[4-[2-(3-fluorophenyl)-4-methylpiperazine-1-carbonyl]-3-pyrrolidin-1-ylphenyl]cyclopropanecarboxamide], 6.60 to 7.20.
Consider `CN1CCN(C(=O)c2ccc(NC(=O)C3CC3)cc2N2CCCC2)C(c2ccc(F)cc2)C1` (racemic) [Example 89, N-[4-[2-(4-fluorophenyl)-4-methylpiperazine-1-carbonyl]-3-pyrrolidin-1ylphenyl]cyclopropanecarboxamide], for which the pKi was 6.00 to 6.50.
The value for `CN1CCN(c2ccc(CNC(=O)c3ccc(NC(=O)C4CC4)cc3N3CCCCCC3)cc2)CC1` [Example 56, 2-(azepan-1-yl)-4-(cyclopropanecarbonylamino)-N-[[4-(4-methylpiperazin-1-yl)phenyl]methyl]benzamide] was 5.20 to 5.90; that for `CN1CCN(C(=O)c2ccc(-c3nccn3C)cc2N2CCCC2)C(c2ccccc2)C1` (racemic) [Example 121, [4-(1-methylimidazol-2-yl)-2-pyrrolidin-1-ylphenyl]-(4-methyl-2-phenylpiperazin-1-yl)methanone] was 5.20 to 5.90.
The value for `CN1CCN(C(=O)c2ccc(NC(=O)C3CC3)cc2N2CCCCCC2)CC1` [Example 49, N-(3-(azepan-1-yl)-4-(4-methylpiperazine-1-carbonyl)phenyl)cyclopropanecarboxamide] was 6.60 to 7.20; that for `O=C(Nc1ccc(C(=O)N2CCSCC2c2ccccc2)c(N2CCCC2)c1)C1CC1` (stereo not shown) [Example 58, N-[4-(3-phenylthiomorpholine-4-carbonyl)-3-pyrrolidin-1-ylphenyl]cyclopropanecarboxamide] was 6.60 to 7.20.
As for `O=C(Nc1ccc(C(=O)N2CCS(=O)(=O)CC2)c(N2CCC(C(F)(F)F)C2)c1)C1CC1` (racemic) [Example 183c, N-[4-(1,1-dioxo-1,4-thiazinane-4-carbonyl)-3-[3-(trifluoromethyl)pyrrolidin-1-yl]phenyl]cyclopropanecarboxamide], the figure is 6.60 to 7.20; as for `CC1CCN(c2cc(NC(=O)C3CC3)ccc2C(=O)N2CCN(C)CC2c2ccccc2)C1` (single isomer, unassigned) [Example 64b, (2S, 3R) or (2R, 3S) or (2R, 3R) or (2S, 3S) N-[4-(4-methyl-2-phenylpiperazine-1-carbonyl)-3-(3-methylpyrrolidin-1-yl)phenyl] cyclopropanecarboxamide], 5.20 to 5.90; as for `CCCN1CCN(C(=O)c2ccc(NC(=O)C3CC3)cc2N2CCCCCC2)C(c2ccccc2)C1` (single isomer, unassigned) [Example 73a, N-[3-(azepan-1-yl)-4-(2-phenyl-4-propylpiperazine-1-carbonyl)phenyl]Cyclopropanecarboxamide], no less than 7.30.
As for `C[C@@H]1C[C@H](C)CN(c2cc(NC(=O)C3CC3)ccc2-c2ncc3n2CCN(C)C3)C1` [Example 104b, N-[3-(3,5-dimethylpiperidin-1-yl)-4-(7-methyl-6,8-dihydro-5H-imidazo[1,5-a]pyrazin-3-yl)phenyl] cyclopropanecarboxamide], the pKi is 6.60 to 7.20.
With `O=C(Nc1ccc(C(=O)N2CCN(c3cccnc3)CC2)c(N2CCCCCC2)c1)C1CC1` [Example 51, N-(3-(azepan-1-yl)-4-(4-(pyridin-3-yl)piperazine-1-carbonyl)phenyl) Cyclopropanecarboxamide], the pKi is 6.60 to 7.20.
As for `CN1CCN(C(=O)c2ccc(-c3nnc(C4CC4)[nH]3)cc2N2CCCC2)C(c2ccccc2)C1` (single isomer, unassigned) [Example 151a, (2R or 2S) [4-(5-cyclopropyl-4H-1,2,4-triazol-3-yl)-2-pyrrolidin-1-ylphenyl]-(4-methyl-2-phenylpiperazin-1-yl)methanone], the figure is 6.60 to 7.20; as for `CCCN1CCN(C(=O)c2ccc(NC(C)=O)cc2N2CCCCCC2)CC1` [Example 95, N-(3-(azepan-1-yl)-4-(4-propylpiperazine-1-carbonyl)phenyl)acetamide], 5.20 to 5.90.
As to `CS(=O)(=O)C1CCN(C(=O)c2ccc(NC(=O)C3CC3)cc2N2CCCC2)CC1` [Example 218, N-[4-(4-methylsulfonylpiperidine-1-carbonyl)-3-pyrrolidin-1-ylphenyl]cyclopropanecarboxamide], the pKi is 5.20 to 5.90.
For `O=C(Nc1ccc(C(=O)N2CCN(Cc3ncco3)CC2)c(N2CCCCCC2)c1)C1CC1` [Example 24, N-(3-(azepan-1-yl)-4-(4-(oxazol-2-ylmethyl)piperazine-1-carbonyl)phenyl) cyclopropanecarboxamide], the pKi is 6.60 to 7.20.
As for `CCCN1CCN(C(=O)c2ccc(NC(=O)C3CCC3)cc2N2CCCCCC2)CC1` [Example 90, N-(3-(azepan-1-yl)-4-(4-propylpiperazine-1-carbonyl)phenyl)cyclobutanecarboxamide], the figure is 5.20 to 5.90; as for `CN1CCN(C(=O)c2ccc(NC(=O)C3CC3)cc2N2CCC3(COC3)C2)C(c2ccccc2)C1` (stereo not shown) [Example 203, N-[4-(4-methyl-2-phenylpiperazine-1-carbonyl)-3-(2-oxa-7-azaspiro[3.4]octan-7-yl)phenyl]cyclopropanecarboxamide], 6.00 to 6.50.
